Measurements taken from patent US20150352100A1, “USE OF SELECTIVE DELTA-OPIOID RECEPTOR ANTAGONISTS AND SPECIFIC SENSORY RECEPTOR LIGANDS” (priority 2013, published 2015).
“Also recorded” adds a separate entry of the source.

Columns and labels:
[1] = test system: primary human cultured fibroblasts; assay: In-vitro wound scratch model, wound closure/migration; format: cell-based; settings: for scratch wound closure after 24 h, remaining gap: FIG. 16b, all opioid antagonists 100 nM, compared to control without any antagonist; for wound closure/migration, gap closure after 24 h: FIG. 16a, compared to control cells in DMSO diluent
Protocol: All opioid antagonists were used in a concentration of 100 nM.
The stimulation of wound closure in fibroblasts by TGF-beta1 is not surprising. However, the stimulation by the DOR-Antagonist Naltrindole was not expected. In an additional experiment we tested the effect of various specific opioid receptor antagonists on the wound closure/migration of human primary fibroblasts using the in-vitro wound scratch assay.

TAS2R14 [2] = assay: Calcium imaging (Fluo4-AM) of keratinocytes with TAS2R14 ligands; format: cell-based, human; settings: for effect of blocker on calcium response to thujone: keratinocytes; for calcium response: in the presence of 100 μM suramin, 1 mM thujone, FFA in N/TERT cells, n=4; for effect of blocker on calcium responses to thujone and FFA: human skin cells, suramin 100 μM
Protocol: (§1) Maximal increases in fluorescence were generated in each recording by addition of the ionophore ionomycin at 1 μM, and calcium responses were calculated as percentages compared to maximal ionomycin signal.

TAS2R14 [3] = biological target: T1, TAS2R14 (Homo sapiens, UniProt Q9NYV8); assay: as above; format: cell-based; settings: for intracellular free calcium (fluorescence of fluo4): bath-application of 1 mM, primary keratinocytes and N/TERT cells
T1 construct: This has allowed functional studies of TAS2R14 to be carried out in a native setting; endogenous in cells; host or cells: human primary keratinocytes and N/TERT immortalised human keratinocytes
T1 sequence (Q9NYV8 1-317): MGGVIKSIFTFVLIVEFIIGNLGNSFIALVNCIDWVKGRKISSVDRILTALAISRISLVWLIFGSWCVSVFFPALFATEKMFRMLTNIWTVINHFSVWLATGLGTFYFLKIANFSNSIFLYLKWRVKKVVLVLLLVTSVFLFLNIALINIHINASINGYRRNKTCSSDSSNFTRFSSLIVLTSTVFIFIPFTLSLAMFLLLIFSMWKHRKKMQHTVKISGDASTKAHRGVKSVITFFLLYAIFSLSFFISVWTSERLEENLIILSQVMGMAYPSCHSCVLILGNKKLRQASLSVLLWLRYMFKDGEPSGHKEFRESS
Protocol: as §1

[4] = test system: 6 mm punch wounds on the back of mice; assay: In vivo wound healing, 6 mm punch wounds, topical cream; settings: 1% w/w cream on wounds twice every day; for wound healing (mean healing rate, macroscopic and microscopic): 10 mice per group, vs placebo
Protocol: The effects of selective DOR antagonist are tested in animal models of wound healing, preferably in mice, to determine whether a selective DOR antagonist improves the quality, rate or extent of wound healing.
In the present example, male mice of 3-4 months old were grouped into 5 groups and 10 in each group. Before experiment, mice are shaved one day before. Pentothal was used for anesthesia before experiments. Seven days experiments are used. Four wounds are made by cutting 6 mm diameter and 3 cm apart. Day 1 wound #1 for 7 day wound, Day 3 wound #2 for 5 day wound, Day 5 wound #3 for 3 day wound, Day 7 wound #4 for 1 day wound, Day 8 mice are sacrifice. […] At the end of experiments on Day 8, the biopsies will be taken from the mice and fixed in 4% formaldehyde and embedded in paraffin block.

[5] = test system: Erk phosphorylation (ERK1/2); assay: pERK activation protocol (western blot, anti-phospho ERK1/2) in primary keratinocytes; format: cell-based, human
Protocol: Primary keratinocytes were grown to 70% and replaced with supplement free medium 16-24 hours before the experiments. The strongly stimulating supplement (25 mg/l bovine pituitary extract and 2.5 ug/l epidermal growth factor, EGF) in complete KFSM (Gibco) medium was used as positive control. Cells were exposed to SNC 80 for 15 min, DMSO (blank control) 15 min, or FCS/complete K-SFM for 30 min at 37° C. […] Cells were lysed in 100 μl RIPA buffer and cell lysates frozen in liquid nitrogen.
Equal amount of protein were separated by electrophoresis over 10% polyacrylamid gels followed by protein transfer onto nitrocellulose membrane. Blots were transferred to primary antibody solution (anti-phospho ERK1/2 in 5% BSA/TBS-T) and incubated at 4° C. over night. After appropriate washing in TBS-T blots were incubated in secondary antibody (anti-rabbit Alexa-680 in 5% milk/TBS-T) for 45 min at room temperature in dark. Blots were washed 3× in TBS-T protected from light. Blots were imaged with the IR imager in 700 nm channel in a scan at 169 μm resolution.

DOR-mRNA expression = assay: Semiquantification of DOR mRNA by real time PCR in cultured human primary skin cells; format: cell-based
Source text: A: Semiquantification of DOR mRNA by Real Time PCR
It is important to mention, that human cultured melanocytes and keratinocytes express more MOR than DOR mRNA. However, fibroblasts express more DOR than MOR mRNA.

DOR protein expression = assay: Western blot analysis of DOR protein expression in cultured human skin cells; format: cell-based
Source text: B: Protein Expression of DOR by Western Blot Analysis: […]

[6] = cultured human primary keratinocytes
[7] = human cultured fibroblasts, 24 h exposure
[8] = human cultured melanocytes, 6 h exposure
[9] = primary human cultured keratinocytes

`COc1cccc2c1[C@]13CCN(CC4CC4)[C@H](C2)[C@]1(OC)CCC(=O)C3` [Cyprodime] was tested, and the “scratch wound closure after 24 h, remaining gap” value [1] was “no significant effects”.

For `O=C1CN(/N=C/c2ccc(-c3ccc([N+](=O)[O-])cc3)o2)C(O)=N1` [Dantrolene], the “effect of blocker on calcium response to thujone” value (TAS2R14 [2]) was “significantly attenuate”.

`O=C(O)c1ccccc1Nc1cccc(C(F)(F)F)c1` [FFA, flufenamic acid] was tested, and the calcium response (TAS2R14 [2]) was 31.0±7.0 percentage of ionomycin signal and the “intracellular free calcium (fluorescence of fluo4)” value (TAS2R14 [3]) was “robust increases in intracellular free calcium”.

In the case of `O=C1CC[C@@]2(O)[C@H]3Cc4ccc(O)c5c4[C@@]2(CCN3CC2CC2)[C@H]1O5` [Naltrexone], the “wound healing (mean healing rate, macroscopic and microscopic)” value [4] is reported as “not effective”.

In the case of `Oc1ccc2c3c1O[C@H]1c4oc5ccccc5c4C[C@@]4(O)[C@@H](C2)N(CC2CC2)CC[C@]314` [Naltriben], the “scratch wound closure after 24 h, remaining gap” value [1] is reported as “more effective than the mixed DOR1/2 antagonist Naltrindole and much more effective than the DOR1 antagonist BNTX”.

`Oc1ccc2c3c1O[C@H]1c4[nH]c5ccccc5c4C[C@@]4(O)[C@@H](C2)N(CC2CC2)CC[C@]314` [Naltrindole, naltrindole] was tested, and the “concentration that promotes phosphorylation of MAP kinase such as Erk” value ([5]; MAP kinase activation assay for selecting DOR antagonists) was “less than or equal to 10 μM”, the “Erk phosphorylation (MAPK pathway ERK1/2)” value ([5]; primary human keratinocytes) was “strong stimulating effect; also recorded: massive activation of Erk” and the “wound closure/migration, gap closure after 24 h” value (shortened to “wound closure/migration”) [1] was “significant faster migration and wound closure; also recorded: significant improvement of wound closure/migration”. The DOR-mRNA expression (DOR-mRNA expression; cultured human primary fibroblasts) was “increases significantly”, the DOR-mRNA expression (DOR-mRNA expression; [6]) was “increases significantly” and the DOR-mRNA expression (DOR-mRNA expression; cultured human primary melanocytes) was “increases significantly”. For the same compound, the DOR-mRNA expression (DOR-mRNA expression; cultured human primary melanocytes, co-incubation of Naltrindole and agonist SNC-80) was “increases significantly”, the “mRNA of DOR” value (DOR-mRNA expression; human keratinocytes and melanocytes pre-incubated for 3 hours with 10 μM Naltrindole, then exposed to SNC-80) was “massively up-regulated” and the “wound healing (mean healing rate, macroscopic and microscopic)” value [4] was “significantly improved wound healing at days 5 and 7”. The “wound healing (mean healing rate, macroscopic and microscopic)” value ([4]; listed as Naltrindol) was “significant better healing”, the “improvement of wound healing” value ([4]; compared to placebo) was 3 days and the DOR protein expression (DOR protein expression; [7]) was “important upregulation”. For the same compound, the DOR protein expression (DOR protein expression; [8]) was “important up-regulation; also recorded: upregulates”, the DOR protein expression (DOR protein expression; human cultured melanocytes, combination of antagonist Naltrindole and agonist SNC-80) was “can upregulate the protein as well; also recorded: can up-regulate the protein as well” and the DOR protein expression (DOR protein expression; [9]) was “important up-regulation; also recorded: up-regulates”.

For `C=CCN1C[C@H](C)N([C@H](c2ccc(C(=O)N(CC)CC)cc2)c2cccc(OC)c2)C[C@H]1C` [SNC-80], the “effect on Naltrindole-stimulated Erk phosphorylation” value ([5]; primary human keratinocytes) was “antagonized”, the “wound closure/migration” value [1] was “does not seem to have any stimulation of migration; also recorded: does not seem to change migration” and the DOR-mRNA expression (DOR-mRNA expression; [6]) was “increases significantly”. The “wound healing (mean healing rate, macroscopic and microscopic)” value [4] was “very significant advantage of a specific DOR antagonist over”, the DOR protein expression (DOR protein expression; [7]) was “some up- and downregulation” and the DOR protein expression (DOR protein expression; [8]) was “not”. For the same compound, the DOR protein expression (DOR protein expression; [9]) was “important up-regulation; also recorded: up-regulates”.

In the case of `C1CCC[C@H]2CCCN3CC[C@@H](CCCCCC[C@@H]4CCCN5CC[C@@H](CC1)O[C@@H]45)O[C@@H]23` [Xestospongin, Xestospongin C], the “effect of blocker on calcium response to thujone” value (TAS2R14 [2]) is reported as “significantly attenuated; also recorded: highly significant inhibition”.

With `COC(=O)/C=C/C(=O)N[C@@H]1CC[C@@]2(O)[C@H]3Cc4ccc(O)c5c4[C@@]2(CCN3CC2CC2)[C@H]1O5` [irreversible blocker of MOR (>KOR>>DOR), beta-Funaltrexamine] the “scratch wound closure after 24 h, remaining gap” value [1] was “no significant effects”.

`Cc1ccc(C(=O)Nc2ccc(S(=O)(=O)O)c3cc(S(=O)(=O)O)cc(S(=O)(=O)O)c23)cc1NC(=O)c1cccc(NC(=O)Nc2cccc(C(=O)Nc3cc(C(=O)Nc4ccc(S(=O)(=O)O)c5cc(S(=O)(=O)O)cc(S(=O)(=O)O)c45)ccc3C)c2)c1` [suramin] was tested, and the “effect of blocker on calcium responses to thujone and FFA” value (TAS2R14 [2]) was “significantly attenuated” and the “effect of blocker on calcium responses to thujone and FFA” value (TAS2R14 [2]; listed as Suramin) was “attenuates significantly”.

For `CC(C)[C@]12CC(=O)[C@H](C)[C@H]1C2` [thujone, α-thujone], the calcium response (TAS2R14 [2]) was 34.4±8.2 percentage of ionomycin signal, the “intracellular free calcium (fluorescence of fluo4)” value (TAS2R14 [3]) was “robust increases in intracellular free calcium” and the calcium response (TAS2R14 [3]; control without suramin, 1 mM thujone, FFA in N/TERT cells, n=4) was 84.2±5.5 percentage of ionomycin signal.

Dalargin was tested, and the “wound healing (mean healing rate, macroscopic and microscopic)” value [4] was “very significant advantage of a specific DOR antagonist over”.

In the case of Ryanodine, the “effect of blocker on calcium response to thujone” value (TAS2R14 [2]) is reported as “significantly attenuate”.

“TGFβ1: known stimulator of wound closure/migration” was tested, and the “wound closure/migration” value [1] was “significant improvement of wound closure/migration” and the “wound closure/migration” value ([1]; listed as TGF-beta1) was “significant faster migration and wound closure”.
